Legend:
Assay in all cases: KinaseProfiler off-target kinase profiling
Format in all cases: biochemical
Conditions in all cases: 10 μM, ATP near Km
ULK3 = molecular target: T1, ULK3 (Homo sapiens, UniProt Q6PHR2)
T1 construct: purchased Millipore, Inc. (KinaseProfiler service)
How it was run: (§1)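 Percent of control (POC) is reported as the mean of duplicate wells, with compound at 10 μM and ATP set near the Km of each kinase.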

PKCbetaII = molecular target: T2, PKCbetaII (Homo sapiens, UniProt P05771)
T2 construct: purchased Millipore, Inc. (KinaseProfiler service)
How it was run: as §1

PKCalpha = molecular target: T3, PKCalpha (Homo sapiens, UniProt P17252)
T3 construct: purchased Millipore, Inc. (KinaseProfiler service)
How it was run: as §1

ERK1 = molecular target: T4, ERK1 (Homo sapiens, UniProt P27361)
T4 construct: purchased Millipore, Inc. (KinaseProfiler service)
How it was run: as §1

DAPK3 = molecular target: T5, DAPK3 (Homo sapiens, UniProt O43293)
T5 construct: purchased Millipore, Inc. (KinaseProfiler service)
How it was run: as §1

MYLK = molecular target: T6, MYLK (Homo sapiens, UniProt Q15746)
T6 construct: purchased Millipore, Inc. (KinaseProfiler service)
How it was run: as §1

MST2 = molecular target: T7, MST2 (Homo sapiens, UniProt Q13188)
T7 construct: purchased Millipore, Inc. (KinaseProfiler service)
How it was run: as §1

p38beta = molecular target: T8, p38beta (Homo sapiens, UniProt Q15759)
T8 construct: purchased Millipore, Inc. (KinaseProfiler service)
How it was run: as §1

Pim-1 = molecular target: T9, Pim-1 (Homo sapiens, UniProt P11309)
T9 construct: purchased Millipore, Inc. (KinaseProfiler service)
How it was run: as §1

Lck = molecular target: T10, Lck (Homo sapiens, UniProt P06239)
T10 construct: purchased Millipore, Inc. (KinaseProfiler service)
How it was run: as §1

NEK2 = molecular target: T11, NEK2 (Homo sapiens, UniProt P51955)
T11 construct: purchased Millipore, Inc. (KinaseProfiler service)
How it was run: as §1

DRAK1 = molecular target: T12, DRAK1 (Homo sapiens, UniProt Q9UEE5)
T12 construct: purchased Millipore, Inc. (KinaseProfiler service)
How it was run: as §1

CK1delta = molecular target: T13, CK1delta (Homo sapiens, UniProt P48730)
T13 construct: purchased Millipore, Inc. (KinaseProfiler service)
How it was run: as §1

ITK = molecular target: T14, ITK (Homo sapiens, UniProt Q08881)
T14 construct: purchased Millipore, Inc. (KinaseProfiler service)
How it was run: as §1

Plk1 = molecular target: T15, Plk1 (Homo sapiens, UniProt P53350)
T15 construct: purchased Millipore, Inc. (KinaseProfiler service)
How it was run: as §1

PDK1 = molecular target: T16, PDK1 (Homo sapiens, UniProt O15530)
T16 construct: purchased Millipore, Inc. (KinaseProfiler service)
How it was run: as §1

FGFR4 = molecular target: T17, FGFR4 (Homo sapiens, UniProt P22455)
T17 construct: purchased Millipore, Inc. (KinaseProfiler service)
How it was run: as §1

CDK3/cyclinE = molecular target: T18, CDK3/cyclinE (Homo sapiens, UniProt Q00526)
T18 construct: purchased Millipore, Inc. (KinaseProfiler service)
How it was run: as §1

Syk = molecular target: T19, Syk (Homo sapiens, UniProt P43405)
T19 construct: purchased Millipore, Inc. (KinaseProfiler service)
How it was run: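 Each kinase is assayed with ATP close to its own Km in the presence of 10 μM compound, in duplicate. The two replicates are averaged and expressed as percent of control.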

mTOR/FKBP12 = molecular target: T20, mTOR/FKBP12 (Homo sapiens, UniProt P42345)
T20 construct: purchased Millipore, Inc. (KinaseProfiler service)
How it was run: as §1

EphB1 = molecular target: T21, EphB1 (Homo sapiens, UniProt P54762)
T21 construct: purchased Millipore, Inc. (KinaseProfiler service)
How it was run: as §1

Rse = molecular target: T22, Rse (Homo sapiens, UniProt Q06418)
T22 construct: purchased Millipore, Inc. (KinaseProfiler service)
How it was run: as §1

MARK1 = molecular target: T23, MARK1 (Homo sapiens, UniProt Q9P0L2)
T23 construct: purchased Millipore, Inc. (KinaseProfiler service)
How it was run: as §1

CK1gamma2 = molecular target: T24, CK1gamma2 (Homo sapiens, UniProt P78368)
T24 construct: purchased Millipore, Inc. (KinaseProfiler service)
How it was run: as §1

Rsk3 = molecular target: T25, Rsk3 (Homo sapiens, UniProt Q15349)
T25 construct: purchased Millipore, Inc. (KinaseProfiler service)
How it was run: as §1

TAO3 = molecular target: T26, TAO3 (Homo sapiens, UniProt Q9H2K8)
T26 construct: purchased Millipore, Inc. (KinaseProfiler service)
How it was run: as §1

Hck = molecular target: T27, Hck (Homo sapiens, UniProt P08631)
T27 construct: purchased Millipore, Inc. (KinaseProfiler service)
How it was run: as §1

PhKgamma2 = molecular target: T28, PhKgamma2 (Homo sapiens, UniProt P15735)
T28 construct: purchased Millipore, Inc. (KinaseProfiler service)
How it was run: as §1

PKCzeta = molecular target: T29, PKCzeta (Homo sapiens, UniProt Q05513)
T29 construct: purchased Millipore, Inc. (KinaseProfiler service)
How it was run: as §1

MST3 = molecular target: T30, MST3 (Homo sapiens, UniProt Q9Y6E0)
T30 construct: purchased Millipore, Inc. (KinaseProfiler service)
How it was run: as §1

RIPK2 = molecular target: T31, RIPK2 (Homo sapiens, UniProt O43353)
T31 construct: purchased Millipore, Inc. (KinaseProfiler service)
How it was run: as §1

CK1gamma1 = molecular target: T32, CK1gamma1 (Homo sapiens, UniProt Q9HCP0)
T32 construct: purchased Millipore, Inc. (KinaseProfiler service)
How it was run: as §1

AKT3 = molecular target: T33, AKT3 (Homo sapiens, UniProt Q9Y243)
T33 construct: purchased Millipore (KinaseProfiler service)
How it was run: as §1

ULK2 = molecular target: T34, ULK2 (Homo sapiens, UniProt Q8IYT8)
T34 construct: purchased Millipore, Inc. (KinaseProfiler service)
How it was run: as §1

Rsk4 = molecular target: T35, Rsk4 (Homo sapiens, UniProt Q9UK32)
T35 construct: purchased Millipore, Inc. (KinaseProfiler service)
How it was run: as §1

MEK1 = molecular target: T36, MEK1 (Homo sapiens, UniProt Q02750)
T36 construct: purchased Millipore, Inc. (KinaseProfiler service)
How it was run: as §1

CDK1/cyclinB = molecular target: T37, CDK1/cyclinB (Homo sapiens, UniProt P06493)
T37 construct: purchased Millipore (KinaseProfiler service)
How it was run: as §1

LOK = molecular target: T38, LOK (Homo sapiens, UniProt O94804)
T38 construct: purchased Millipore, Inc. (KinaseProfiler service)
How it was run: as §1

STK33 = molecular target: T39, STK33 (Homo sapiens, UniProt Q9BYT3)
T39 construct: purchased Millipore, Inc. (KinaseProfiler service)
How it was run: as §1

EphA4 = molecular target: T40, EphA4 (Homo sapiens, UniProt P54764)
T40 construct: purchased Millipore, Inc. (KinaseProfiler service)
How it was run: as §1

VRK2 = molecular target: T41, VRK2 (Homo sapiens, UniProt Q86Y07)
T41 construct: purchased Millipore, Inc. (KinaseProfiler service)
How it was run: as §1

T5 sequence (O43293 whole entry): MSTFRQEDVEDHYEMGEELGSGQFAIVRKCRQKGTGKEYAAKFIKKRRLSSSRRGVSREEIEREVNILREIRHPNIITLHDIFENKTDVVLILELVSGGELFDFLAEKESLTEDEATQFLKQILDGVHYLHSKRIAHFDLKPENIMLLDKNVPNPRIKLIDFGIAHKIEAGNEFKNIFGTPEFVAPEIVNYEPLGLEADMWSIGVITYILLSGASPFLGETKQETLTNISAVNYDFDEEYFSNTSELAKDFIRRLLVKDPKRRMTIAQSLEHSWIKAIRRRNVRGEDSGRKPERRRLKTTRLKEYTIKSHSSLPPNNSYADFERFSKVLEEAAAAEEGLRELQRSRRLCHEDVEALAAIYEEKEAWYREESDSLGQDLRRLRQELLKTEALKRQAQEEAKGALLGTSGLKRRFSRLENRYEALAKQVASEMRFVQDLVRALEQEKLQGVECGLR
T35 sequence (Q9UK32 whole entry): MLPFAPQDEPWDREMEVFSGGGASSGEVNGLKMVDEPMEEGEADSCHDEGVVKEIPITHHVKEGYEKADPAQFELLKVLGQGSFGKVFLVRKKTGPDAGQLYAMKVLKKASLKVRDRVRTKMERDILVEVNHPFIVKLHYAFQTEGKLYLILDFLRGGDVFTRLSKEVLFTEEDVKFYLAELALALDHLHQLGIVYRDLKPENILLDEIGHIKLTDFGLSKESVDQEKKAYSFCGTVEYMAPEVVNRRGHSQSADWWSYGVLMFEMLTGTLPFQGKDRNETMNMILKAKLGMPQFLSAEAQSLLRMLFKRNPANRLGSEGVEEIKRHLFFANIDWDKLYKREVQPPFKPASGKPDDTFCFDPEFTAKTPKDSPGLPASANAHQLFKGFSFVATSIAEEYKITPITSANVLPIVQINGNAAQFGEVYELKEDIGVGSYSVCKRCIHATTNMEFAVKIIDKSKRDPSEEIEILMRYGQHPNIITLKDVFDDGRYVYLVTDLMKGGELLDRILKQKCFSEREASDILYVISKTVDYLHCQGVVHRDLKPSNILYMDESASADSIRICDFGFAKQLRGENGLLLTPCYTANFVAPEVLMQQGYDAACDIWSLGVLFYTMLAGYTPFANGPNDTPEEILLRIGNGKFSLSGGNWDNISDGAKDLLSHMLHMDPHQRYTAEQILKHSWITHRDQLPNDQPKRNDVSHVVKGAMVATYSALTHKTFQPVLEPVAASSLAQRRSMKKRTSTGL
T26 sequence (Q9H2K8 whole entry): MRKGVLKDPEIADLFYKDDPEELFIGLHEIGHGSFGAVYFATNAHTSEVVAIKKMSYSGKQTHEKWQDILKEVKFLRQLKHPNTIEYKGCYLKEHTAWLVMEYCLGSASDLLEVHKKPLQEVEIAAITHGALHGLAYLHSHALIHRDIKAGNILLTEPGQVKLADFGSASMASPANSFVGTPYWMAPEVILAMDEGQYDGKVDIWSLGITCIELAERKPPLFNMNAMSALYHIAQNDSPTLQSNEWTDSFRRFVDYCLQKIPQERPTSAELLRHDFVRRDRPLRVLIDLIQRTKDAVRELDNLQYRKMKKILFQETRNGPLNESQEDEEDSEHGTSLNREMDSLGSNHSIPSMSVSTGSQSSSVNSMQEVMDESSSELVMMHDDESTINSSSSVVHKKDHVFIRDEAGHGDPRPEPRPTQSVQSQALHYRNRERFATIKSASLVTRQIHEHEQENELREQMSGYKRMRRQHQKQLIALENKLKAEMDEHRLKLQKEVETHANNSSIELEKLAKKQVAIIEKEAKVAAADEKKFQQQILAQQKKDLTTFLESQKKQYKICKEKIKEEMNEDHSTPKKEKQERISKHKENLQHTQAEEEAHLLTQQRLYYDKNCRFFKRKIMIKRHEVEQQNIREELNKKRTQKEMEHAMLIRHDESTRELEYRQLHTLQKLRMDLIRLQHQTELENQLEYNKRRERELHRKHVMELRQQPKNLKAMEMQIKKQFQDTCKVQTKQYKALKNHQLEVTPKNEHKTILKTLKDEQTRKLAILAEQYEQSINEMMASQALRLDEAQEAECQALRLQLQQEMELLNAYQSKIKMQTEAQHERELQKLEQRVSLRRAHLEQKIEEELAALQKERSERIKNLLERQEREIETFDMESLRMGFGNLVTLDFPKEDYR
T4 sequence (P27361 whole entry): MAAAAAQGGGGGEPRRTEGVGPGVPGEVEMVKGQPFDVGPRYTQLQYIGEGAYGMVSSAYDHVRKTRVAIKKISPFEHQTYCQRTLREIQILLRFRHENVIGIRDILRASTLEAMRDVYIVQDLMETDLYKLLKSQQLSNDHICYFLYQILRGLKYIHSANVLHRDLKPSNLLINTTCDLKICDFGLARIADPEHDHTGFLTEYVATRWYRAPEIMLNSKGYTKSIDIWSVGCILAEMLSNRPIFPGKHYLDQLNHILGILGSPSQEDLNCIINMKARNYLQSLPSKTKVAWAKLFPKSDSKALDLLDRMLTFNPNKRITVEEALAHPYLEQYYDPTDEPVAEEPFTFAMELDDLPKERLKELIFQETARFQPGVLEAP
T22 sequence (Q06418 41-890): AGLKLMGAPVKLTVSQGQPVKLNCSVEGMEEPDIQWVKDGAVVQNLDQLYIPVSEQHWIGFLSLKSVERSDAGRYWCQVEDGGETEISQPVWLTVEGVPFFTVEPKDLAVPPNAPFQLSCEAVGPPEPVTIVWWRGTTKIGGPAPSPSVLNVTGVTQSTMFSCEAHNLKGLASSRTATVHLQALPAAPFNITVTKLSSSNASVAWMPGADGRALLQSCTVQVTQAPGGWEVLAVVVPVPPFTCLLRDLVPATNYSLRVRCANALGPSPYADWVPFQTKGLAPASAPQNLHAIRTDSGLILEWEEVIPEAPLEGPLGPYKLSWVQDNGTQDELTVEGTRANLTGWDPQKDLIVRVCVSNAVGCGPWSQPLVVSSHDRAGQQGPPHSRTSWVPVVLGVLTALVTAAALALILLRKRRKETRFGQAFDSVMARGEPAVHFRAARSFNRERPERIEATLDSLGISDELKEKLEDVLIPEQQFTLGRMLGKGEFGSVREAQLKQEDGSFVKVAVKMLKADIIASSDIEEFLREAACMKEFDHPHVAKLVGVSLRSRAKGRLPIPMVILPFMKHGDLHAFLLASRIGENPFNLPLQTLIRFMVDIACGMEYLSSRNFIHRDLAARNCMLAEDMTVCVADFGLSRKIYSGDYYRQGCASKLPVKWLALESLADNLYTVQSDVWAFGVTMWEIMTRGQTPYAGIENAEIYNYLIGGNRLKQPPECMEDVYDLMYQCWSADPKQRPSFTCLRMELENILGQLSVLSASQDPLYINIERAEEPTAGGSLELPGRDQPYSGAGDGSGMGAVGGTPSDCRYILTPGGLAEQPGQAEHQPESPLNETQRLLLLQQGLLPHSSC
T2 sequence (P05771 1-673 isoform P05771-2): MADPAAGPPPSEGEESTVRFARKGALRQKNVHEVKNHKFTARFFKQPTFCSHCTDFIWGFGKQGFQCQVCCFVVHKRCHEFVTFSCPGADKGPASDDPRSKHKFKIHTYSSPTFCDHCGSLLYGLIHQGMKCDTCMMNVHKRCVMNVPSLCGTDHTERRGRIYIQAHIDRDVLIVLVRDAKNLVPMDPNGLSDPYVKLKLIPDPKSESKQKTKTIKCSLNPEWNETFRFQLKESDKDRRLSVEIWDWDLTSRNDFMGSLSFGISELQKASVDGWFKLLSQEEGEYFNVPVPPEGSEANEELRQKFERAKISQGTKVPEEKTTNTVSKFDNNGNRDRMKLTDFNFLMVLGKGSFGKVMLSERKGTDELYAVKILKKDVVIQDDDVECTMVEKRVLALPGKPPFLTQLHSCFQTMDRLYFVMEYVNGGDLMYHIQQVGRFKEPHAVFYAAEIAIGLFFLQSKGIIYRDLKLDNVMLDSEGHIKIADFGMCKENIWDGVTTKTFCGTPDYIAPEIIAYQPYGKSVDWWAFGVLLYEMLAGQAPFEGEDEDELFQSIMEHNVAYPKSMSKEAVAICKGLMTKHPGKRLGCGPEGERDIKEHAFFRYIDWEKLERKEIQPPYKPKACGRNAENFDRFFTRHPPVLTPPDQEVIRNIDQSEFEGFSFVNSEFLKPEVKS
T25 sequence (Q15349 whole entry): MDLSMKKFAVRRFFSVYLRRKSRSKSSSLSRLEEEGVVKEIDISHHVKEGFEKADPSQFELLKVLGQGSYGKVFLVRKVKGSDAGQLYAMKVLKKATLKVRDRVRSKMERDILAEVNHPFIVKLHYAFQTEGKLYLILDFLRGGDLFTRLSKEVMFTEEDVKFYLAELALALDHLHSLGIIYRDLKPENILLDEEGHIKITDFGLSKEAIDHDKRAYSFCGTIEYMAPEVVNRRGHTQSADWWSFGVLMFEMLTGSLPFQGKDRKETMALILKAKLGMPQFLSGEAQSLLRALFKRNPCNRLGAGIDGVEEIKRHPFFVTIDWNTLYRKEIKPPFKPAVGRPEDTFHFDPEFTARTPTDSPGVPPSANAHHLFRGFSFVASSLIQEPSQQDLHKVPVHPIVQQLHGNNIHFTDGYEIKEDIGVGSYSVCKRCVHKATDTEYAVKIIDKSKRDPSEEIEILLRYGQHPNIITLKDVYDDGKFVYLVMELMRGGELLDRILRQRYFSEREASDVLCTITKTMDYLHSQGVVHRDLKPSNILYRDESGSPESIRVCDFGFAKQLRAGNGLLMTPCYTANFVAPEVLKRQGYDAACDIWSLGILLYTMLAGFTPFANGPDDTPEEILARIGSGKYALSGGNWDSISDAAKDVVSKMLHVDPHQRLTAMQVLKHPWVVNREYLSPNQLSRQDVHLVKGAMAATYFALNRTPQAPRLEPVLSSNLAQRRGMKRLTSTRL
T9 sequence (P11309 whole entry): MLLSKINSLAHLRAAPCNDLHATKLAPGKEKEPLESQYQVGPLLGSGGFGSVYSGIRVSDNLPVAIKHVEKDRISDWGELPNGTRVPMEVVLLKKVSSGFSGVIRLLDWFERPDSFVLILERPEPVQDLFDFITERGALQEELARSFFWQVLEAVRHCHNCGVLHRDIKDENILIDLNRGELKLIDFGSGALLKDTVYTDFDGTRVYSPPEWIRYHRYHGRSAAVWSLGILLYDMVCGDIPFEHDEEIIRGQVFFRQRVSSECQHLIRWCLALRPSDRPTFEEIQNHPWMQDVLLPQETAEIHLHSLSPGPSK

Cc1c(-c2cnn(C)c2)nn(-c2ccccc2)c1NC(=O)Nc1sc(C(F)(F)F)nc1-c1ccccc1 [Example 2, 1-(1′,4-dimethyl-1-phenyl-1H,1′H-[3,4′-bipyrazol]-5-yl)-3-(4-phenyl-2-(trifluoromethyl)thiazol-5-yl)urea]
Avg POC (ULK3): 90 POC
Avg POC (PKCbetaII): 95 POC
Avg POC (PKCalpha): 102.5 POC
Avg POC (ERK1): 96.5 POC
Avg POC (DAPK3): 120 POC
Avg POC (MYLK): 99 POC
Avg POC (MST2): 109 POC
Avg POC (p38beta): 106.5 POC
Avg POC (Pim-1): 109.5 POC
Avg POC (Lck): 103 POC
Avg POC (NEK2): 122.5 POC
Avg POC (DRAK1): 119 POC
Avg POC (CK1delta): 117.5 POC
Avg POC (ITK): 125.5 POC
Avg POC (Plk1): 103.5 POC
Avg POC (PDK1): 115 POC
Avg POC (FGFR4): 141.5 POC
Avg POC (CDK3/cyclinE): 105 POC
Avg POC (Syk): 127.5 POC
Avg POC (mTOR/FKBP12): 103 POC
Avg POC (EphB1): 136 POC
Avg POC (Rse): 108 POC
Avg POC (MARK1): 107 POC
Avg POC (CK1gamma2): 110 POC
Avg POC (Rsk3): 99 POC
Avg POC (TAO3): 94 POC
Avg POC (Hck): 134.5 POC
Avg POC (PhKgamma2): 108 POC
Avg POC (PKCzeta): 108 POC
Avg POC (MST3): 157.5 POC
Avg POC (RIPK2): 98 POC
Avg POC (CK1gamma1): 104 POC
Avg POC (AKT3): 116 POC
Avg POC (ULK2): 91 POC
Avg POC (Rsk4): 98 POC
Avg POC (MEK1): 103.5 POC
Avg POC (CDK1/cyclinB): 106 POC
Avg POC (LOK): 110.5 POC
Avg POC (STK33): 120.5 POC
Avg POC (EphA4): 109 POC
Avg POC (VRK2): 91.5 POC
